Data taken from article PMC12196347, “Evaluating Triazole-Substituted Pyrrolopyrimidines as CSF1R Inhibitors” (Molecules, 2025).
Where two headings read alike, the source gives them in different places.

Legend:
BLK = molecular target: T1, BLK (Homo sapiens, UniProt P51451); experiment: Kinase panel profiling: BLK; format: biochemical; details: ATP equal to KM
T1 construct: purchased Thermo Fisher Scientific (Invitrogen) SelectScreen (Z'-LYTE)

CSF1R = molecular target: T2, CSF1R (Homo sapiens, UniProt P07333); experiment: CSF1R enzymatic inhibition, TR-FRET-based LANCE Ultra assay; format: biochemical; details: single 8-point titrations, ATP concentration 25 µM, read-out: Enz. IC50
T2 sequence (P07333 539-972 limits assumed): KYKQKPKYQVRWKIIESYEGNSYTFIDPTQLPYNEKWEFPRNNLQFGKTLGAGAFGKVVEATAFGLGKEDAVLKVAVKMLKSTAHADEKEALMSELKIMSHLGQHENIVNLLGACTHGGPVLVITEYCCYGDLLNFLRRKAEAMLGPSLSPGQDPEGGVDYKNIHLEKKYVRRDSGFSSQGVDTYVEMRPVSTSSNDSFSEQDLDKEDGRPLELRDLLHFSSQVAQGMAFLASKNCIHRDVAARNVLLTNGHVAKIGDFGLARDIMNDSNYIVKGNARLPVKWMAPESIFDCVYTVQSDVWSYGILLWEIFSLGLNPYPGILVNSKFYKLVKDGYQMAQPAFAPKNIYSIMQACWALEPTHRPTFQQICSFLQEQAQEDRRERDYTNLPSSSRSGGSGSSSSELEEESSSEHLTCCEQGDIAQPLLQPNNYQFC

T1 sequence (P51451 whole entry): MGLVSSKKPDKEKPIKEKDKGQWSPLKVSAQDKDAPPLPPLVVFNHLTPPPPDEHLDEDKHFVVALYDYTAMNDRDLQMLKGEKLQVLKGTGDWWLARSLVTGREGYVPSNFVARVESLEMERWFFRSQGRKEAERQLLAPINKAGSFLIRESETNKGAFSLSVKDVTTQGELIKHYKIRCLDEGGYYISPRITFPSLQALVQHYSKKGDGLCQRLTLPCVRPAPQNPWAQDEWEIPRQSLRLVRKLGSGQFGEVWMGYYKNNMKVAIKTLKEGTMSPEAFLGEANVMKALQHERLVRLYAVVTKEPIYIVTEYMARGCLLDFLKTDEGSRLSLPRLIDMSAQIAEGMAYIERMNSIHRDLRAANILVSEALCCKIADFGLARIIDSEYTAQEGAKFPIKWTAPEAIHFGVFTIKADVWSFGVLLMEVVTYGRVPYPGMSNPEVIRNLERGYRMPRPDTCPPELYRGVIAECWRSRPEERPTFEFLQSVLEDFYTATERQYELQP

- inhibition at 1 µM (BLK; 1000 nM test concentration, read-out: Average inhibition (%)): 69%
- inhibition at 1 µM (BLK; 1000 nM, first data point, read-out: Inhibition (%)): 69%
- IC50 (CSF1R): < 1 nM
Compound: Cc1cccc(CN(C)c2ncnc3[nH]c(-c4cn(Cc5cccnc5)nn4)cc23)c1 [Compound 27a, N-Methyl-N-(3-methylbenzyl)-6-(1-(pyridin-3-ylmethyl)-1H-1,2,3-triazol-4-yl)-7H-pyrrolo[2,3-d]pyrimidin-4-amine]
